Measurements taken from patent publication US20210386788A1, “ER TUNABLE PROTEIN REGULATION” (Obsidian Therapeutics, Inc., priority 2018, published 2021).
Values joined by “and” are separate entries in the source; they are usually repeats but may differ in a detail not shown here. Equal entries are not always repeated. Where two headings read alike, the source gives them in different places.

Tests used:
[1] = tested on: primary human T cells; assay: IL12 (p70) in lentivirus transduced primary human T cells, Bazedoxifene dose response (MSD assay); type: cell-based
Protocol: Primary human T cells were expanded with CD3/CD28 Dynabeads, transduced with lentivirus constructs and expanded for 10 days. Beads were removed and cells were frozen. T cells were later thawed and 100,000 cells were treated overnight with different doses of Bazedoxifene (BZD). Transduction efficiency was assessed by flow cytometry using CD19-Fc staining. The response of IL12 in CD19 CAR-IL12 tandem constructs to increasing concentrations of ligand was measured using OT-001736 construct with increasing doses of BZD starting at 0.01 nM to up to 3 μM for 23 hours. IL12 levels were measured using MSD assay. Controls tested in the experiment included OT-001357, which constitutively expresses IL12 and OT-001407, which is not expected to show any IL12 expression.
Additional ER mutants were tested in primary human T cells as described above, except T cells were treated on day 9 of expansion, and not frozen and thawed prior to the experiment (Table 15).

[2] = 3 mg intravenous (IV); cited from earlier work
[3] = Pharmacokinetics of Bazedoxifene in CD-1 mice (plasma, LC-MS-MS); type: in vivo; set-up: Plasma Bazedoxifene Concentrations: unit not given here

EC50 ([1]; T-cell, BZD dose response in primary human T cells expressing OT-001736, read-out: EC50 of IL12 induction): 200 nM
Plasma Bazedoxifene Concentrations ([3]; 10 mg/kg single dose, 0.25 hours post dose, free and bound combined, individual animals): 0.062 and 0.127 and 0.287
Plasma Bazedoxifene Concentrations ([3]; 10 mg/kg single dose, 0.5 hours post dose, free and bound combined, individual animals): 0.050 and 0.091
Plasma Bazedoxifene Concentrations ([3]; 10 mg/kg single dose, 1 hours post dose, free and bound combined, individual animals): 0.089 and 0.105
Plasma Bazedoxifene Concentrations ([3]; 10 mg/kg single dose, 2 hours post dose, free and bound combined, individual animals): 0.096 and 0.107
Plasma Bazedoxifene Concentrations ([3]; 10 mg/kg single dose, 4 hours post dose, free and bound combined, individual animals): 0.053 and 0.055
Plasma Bazedoxifene Concentrations ([3]; 10 mg/kg single dose, 7 hours post dose, free and bound combined, individual animals): 0.036 and 0.035
Plasma Bazedoxifene Concentrations ([3]; 10 mg/kg single dose, 10 hours post dose, free and bound combined, individual animals): 0.033 and 0.028 and 0.016
Plasma Bazedoxifene Concentrations ([3]; 10 mg/kg single dose, 24 hours post dose, free and bound combined, individual animals): 0.005 and 0.003 and 0.004
Plasma Bazedoxifene Concentrations ([3]; 100 mg/kg single dose, 0.25 hours post dose, free and bound combined, individual animals): 1.268 and 0.949 and 2.590
Plasma Bazedoxifene Concentrations ([3]; 100 mg/kg single dose, 0.5 hours post dose, free and bound combined, individual animals): 2.113 and 2.208 and 4.544
Plasma Bazedoxifene Concentrations ([3]; 100 mg/kg single dose, 1 hours post dose, free and bound combined, individual animals): 2.590 and 5.138
Plasma Bazedoxifene Concentrations ([3]; 100 mg/kg single dose, 2 hours post dose, free and bound combined, individual animals): 2.272 and 4.161
Plasma Bazedoxifene Concentrations ([3]; 100 mg/kg single dose, 4 hours post dose, free and bound combined, individual animals): 1.208 and 1.902
Plasma Bazedoxifene Concentrations ([3]; 100 mg/kg single dose, 7 hours post dose, free and bound combined, individual animals): 0.894 and 0.463 and 0.970
Plasma Bazedoxifene Concentrations ([3]; 100 mg/kg single dose, 10 hours post dose, free and bound combined, individual animals): 0.754 and 0.497 and 0.713
Plasma Bazedoxifene Concentrations ([3]; 100 mg/kg single dose, 24 hours post dose, free and bound combined, individual animals): 0.023 and 0.179 and 0.025
Plasma Bazedoxifene Concentrations ([3]; 200 mg/kg single dose, 0.25 hours post dose, free and bound combined, individual animals): 1.495 and 1.013
Plasma Bazedoxifene Concentrations ([3]; 200 mg/kg single dose, 0.5 hours post dose, free and bound combined, individual animals): 2.314 and 1.707
Plasma Bazedoxifene Concentrations ([3]; 200 mg/kg single dose, 1 hours post dose, free and bound combined, individual animals): 3.397 and 4.013
Plasma Bazedoxifene Concentrations ([3]; 200 mg/kg single dose, 2 hours post dose, free and bound combined, individual animals): 2.590 and 3.567
Plasma Bazedoxifene Concentrations ([3]; 200 mg/kg single dose, 4 hours post dose, free and bound combined, individual animals): 1.327 and 2.357
Plasma Bazedoxifene Concentrations ([3]; 200 mg/kg single dose, 7 hours post dose, free and bound combined, individual animals): 0.866 and 0.726 and 1.189
Plasma Bazedoxifene Concentrations ([3]; 200 mg/kg single dose, 10 hours post dose, free and bound combined, individual animals): 0.699 and 0.732 and 0.715
Plasma Bazedoxifene Concentrations ([3]; 200 mg/kg single dose, 24 hours post dose, free and bound combined, individual animals): 0.297 and 0.314 and 0.180
concentration at 0.5 h ([3]; CD-1, mouse, plasma, oral, 10 mg/kg, 10 mg/kg single dose, 0.5 hours post dose, free and bound combined, individual animals, read-out: Plasma Bazedoxifene Concentrations): 71 nM
concentration at 1 h ([3]; CD-1, mouse, plasma, oral, 10 mg/kg, 10 mg/kg single dose, 1 hours post dose, free and bound combined, individual animals, read-out: Plasma Bazedoxifene Concentrations): 97 nM
concentration at 2 h ([3]; CD-1, mouse, plasma, oral, 10 mg/kg, 10 mg/kg single dose, 2 hours post dose, free and bound combined, individual animals, read-out: Plasma Bazedoxifene Concentrations): 77 nM
concentration at 4 h ([3]; CD-1, mouse, plasma, oral, 10 mg/kg, 10 mg/kg single dose, 4 hours post dose, free and bound combined, individual animals, read-out: Plasma Bazedoxifene Concentrations): 49 nM
concentration at 7 h ([3]; CD-1, mouse, plasma, oral, 10 mg/kg, 10 mg/kg single dose, 7 hours post dose, free and bound combined, individual animals, read-out: Plasma Bazedoxifene Concentrations): 34 nM
concentration at 1 h ([3]; CD-1, mouse, plasma, oral, 100 mg/kg, 100 mg/kg single dose, 1 hours post dose, free and bound combined, individual animals, read-out: Plasma Bazedoxifene Concentrations): 3590 nM
concentration at 2 h ([3]; CD-1, mouse, plasma, oral, 100 mg/kg, 100 mg/kg single dose, 2 hours post dose, free and bound combined, individual animals, read-out: Plasma Bazedoxifene Concentrations): 2820 nM
concentration at 4 h ([3]; CD-1, mouse, plasma, oral, 100 mg/kg, 100 mg/kg single dose, 4 hours post dose, free and bound combined, individual animals, read-out: Plasma Bazedoxifene Concentrations): 1380 nM
concentration at 0.25 h ([3]; CD-1, mouse, plasma, oral, 200 mg/kg, 200 mg/kg single dose, 0.25 hours post dose, free and bound combined, individual animals, read-out: Plasma Bazedoxifene Concentrations): 1060 nM
concentration at 0.5 h ([3]; CD-1, mouse, plasma, oral, 200 mg/kg, 200 mg/kg single dose, 0.5 hours post dose, free and bound combined, individual animals, read-out: Plasma Bazedoxifene Concentrations): 1510 nM
concentration at 1 h ([3]; CD-1, mouse, plasma, oral, 200 mg/kg, 200 mg/kg single dose, 1 hours post dose, free and bound combined, individual animals, read-out: Plasma Bazedoxifene Concentrations): 2400 nM
concentration at 2 h ([3]; CD-1, mouse, plasma, oral, 200 mg/kg, 200 mg/kg single dose, 2 hours post dose, free and bound combined, individual animals, read-out: Plasma Bazedoxifene Concentrations): 3270 nM
concentration at 4 h ([3]; CD-1, mouse, plasma, oral, 200 mg/kg, 200 mg/kg single dose, 4 hours post dose, free and bound combined, individual animals, read-out: Plasma Bazedoxifene Concentrations): 1580 nM
Cmax ([3]; CD-1, mouse, plasma, dose of 200 mg/kg per os (PO), read-out: Murine Cmax): ~3000 nM
SMILES: Cc1c(-c2ccc(O)cc2)n(Cc2ccc(OCCN3CCCCCC3)cc2)c2ccc(O)cc12 [Bazedoxifene]
lowest BZD concentration that induced IL12 expression ([1]; primary human T cells expressing OT-001736): 0.05 µM
Cmax [2]: ~100 nM
